Experimental data as given in US10106544B2, “1,2-dihydro-3H-pyrrolo[1,2-C]imidazol-3-one derivatives and their use as antibacterial agents” (priority 2014, dated 2018).
≈ marks a conversion by molar mass, not a printed value. Where a name gives a salt, the structure may show the parent alone. Read-outs that look alike come from different tables or passages of the source.

Experiments:
Experiment in all cases: Bacterial growth minimal inhibitory concentration (microdilution, cation-adjusted Mueller-Hinton Broth)
Assay type in all cases: cell-based
[1] = tested on: K. pneumoniae A-651; details: for MIC: Klebsiella pneumoniae
Method: (§1) Minimal Inhibitory Concentrations (MICs; mg/L) were determined in cation-adjusted Mueller-Hinton Broth by a microdilution method following the description given in “Methods for Dilution Antimicrobial Susceptibility Tests for Bacteria that Grow Aerobically”, Approved standard, 7th ed., a Clinical and Laboratory Standards Institute (CLSI) Document M7-A7, Wayne, Pa., USA (2006).
(§2) All Example compounds were tested against several Gram-positive and Gram-negative bacteria. […] K. pneumoniae A-651 is a multiply-resistant strain (in particular quinolone-resistant), while E. coli ATCC25922 and P. aeruginosa ATCC27853 are quinolone-sensitive strains.

[2] = tested on: P. aeruginosa ATCC27853; details: for MIC: Pseudomonas aeruginosa
Method: as §1, §2

[3] = tested on: E. coli ATCC25922; details: for MIC: Escherichia coli
Method: as §1, §2

[4] = A651, multiply-resistant strain (in particular quinolone-resistant), read-out: MIC for K. Pneumoniae A-651
[5] = ATCC27853, quinolone-sensitive strain, read-out: MIC for P. aeruginosa ATCC27853
[6] = ATCC25922, quinolone-sensitive strain, read-out: MIC for E. coli ATCC25922

Row | Structure (SMILES) | MIC [1, 4] | MIC [2, 5] | MIC [3, 6] | other results
1 | C[C@@](CCN1Cc2cc(C#Cc3ccc(CN4CCOCC4)cc3)cn2C1=O)(C(=O)NO)S(C)(=O)=O [Example 25, (R)-N-hydroxy-2-methyl-2-(methylsulfonyl)-4-(6-((4-(morpholinomethyl)phenyl)ethynyl)-3-oxo-1H-pyrrolo[1,2-c]imidazol-2(3H)-yl)butanamide] | 0.25 µg/mL (≈ 0.486 µM) | 1 µg/mL (≈ 1.94 µM) | 0.125 µg/mL (≈ 0.243 µM) | –
2 | C[C@@](CCN1Cc2cc(C#CC#C[C@@H]3C[C@H]3CO)cn2C1=O)(C(=O)NO)S(C)(=O)=O [Example 27, (R)-N-hydroxy-4-(6-(((1R,2R)-2-(hydroxymethyl)cyclopropyl)buta-1,3-diyn-1-yl)-3-oxo-1H-pyrrolo[1,2-c]imidazol-2(3H)-yl)-2-methyl-2-(methylsulfonyl)butanamide] | 0.25 µg/mL (≈ 0.577 µM) | 0.5 µg/mL (≈ 1.15 µM) | ≤ 0.063 µg/mL | –
3 | COc1cccc(-c2cc3n(c2)C(=O)N(CC[C@](C)(C(=O)NO)S(C)(=O)=O)C3)c1F [Example 28, (R)-4-(6-(2-fluoro-3-methoxyphenyl)-3-oxo-1H-pyrrolo[1,2-c]imidazol-2(3H)-yl)-N-hydroxy-2-methyl-2-(methylsulfonyl)butanamide] | 0.25 µg/mL (≈ 0.569 µM) | 1 µg/mL (≈ 2.28 µM) | ≤ 0.063 µg/mL | –
4 | C[C@@](CCN1Cc2cc(/C=C/c3ccc(CO)cc3)cn2C1=O)(C(=O)NO)S(C)(=O)=O [Example 29, (R)-(E)-N-hydroxy-4-(6-(4-(hydroxymethyl)styryl)-3-oxo-1H-pyrrolo[1,2-c]imidazol-2(3H)-yl)-2-methyl-2-(methylsulfonyl)butanamide] | 0.5 µg/mL (≈ 1.12 µM) | 2 µg/mL (≈ 4.47 µM) | 0.25 µg/mL (≈ 0.559 µM) | –
5 | C[C@@](CCN1Cc2cc(C#CC#CC34CC(CO)(C3)C4)cn2C1=O)(C(=O)NO)S(C)(=O)=O [Example 30, (R)-N-hydroxy-4-(6-(4-(3-(hydroxymethyl)bicyclo[1.1.1]pentan-1-yl)buta-1,3-diyn-1-yl)-3-oxo-1H-pyrrolo[1,2-c]imidazol-2(3H)-yl)-2-methyl-2-(methylsulfonyl)butanamide] | 0.25 µg/mL (≈ 0.544 µM) | 0.5 µg/mL (≈ 1.09 µM) | 0.125 µg/mL (≈ 0.272 µM) | –
6 | CC(C)(N)C#CC#Cc1cc2n(c1)C(=O)N(CC[C@](C)(C(=O)NO)S(C)(=O)=O)C2 [Example 31, (R)-4-(6-(5-amino-5-methylhexa-1,3-diyn-1-yl)-3-oxo-1H-pyrrolo[1,2-c]imidazol-2(3H)-yl)-N-hydroxy-2-methyl-2-(methylsulfonyl)butanamide] | 1 µg/mL (≈ 2.38 µM) | 1 µg/mL (≈ 2.38 µM) | 1 µg/mL (≈ 2.38 µM) | –
7 | C[C@@](CCN1Cc2cc(C#CC#C[C@@H]3C[C@@H](O)[C@@H](O)C3)cn2C1=O)(C(=O)NO)S(C)(=O)=O [Example 33, (R)-4-(6-(((1S,3R,4S)-3,4-dihydroxycyclopentyl)buta-1,3-diyn-1-yl)-3-oxo-1H-pyrrolo[1,2-c]imidazol-2(3H)-yl)-N-hydroxy-2-methyl-2-(methylsulfonyl)butanamide] | – | – | – | MIC for K. Pneumoniae A-651 ([1]; multiply-resistant strain (in particular quinolone-resistant)): 0.5 µg/mL; MIC for P. aeruginosa ATCC27853 ([2]; quinolone-sensitive strain): 1 µg/mL; MIC for E. coli ATCC25922 ([3]; quinolone-sensitive strain): 0.5 µg/mL
8 | C[C@@]1(C#CC#Cc2cc3n(c2)C(=O)N(CC[C@](C)(C(=O)NO)S(C)(=O)=O)C3)C[C@H]1CO [Example 36, (R)-N-hydroxy-4-(6-(((1R,2R)-2-(hydroxymethyl)-1-methylcyclopropyl)buta-1,3-diyn-1-yl)-3-oxo-1H-pyrrolo[1,2-c]imidazol-2(3H)-yl)-2-methyl-2-(methylsulfonyl)butanamide] | 0.25 µg/mL (≈ 0.559 µM) | 0.5 µg/mL (≈ 1.12 µM) | 0.125 µg/mL (≈ 0.279 µM) | –
9 | C[C@@](CCN1Cc2cc(C#CC#CC3(N)CC3)cn2C1=O)(C(=O)NO)S(C)(=O)=O.Cl [Example 38, (R)-4-(6-((1-aminocyclopropyl)buta-1,3-diyn-1-yl)-3-oxo-1H-pyrrolo[1,2-c]imidazol-2(3H)-yl)-N-hydroxy-2-methyl-2-(methylsulfonyl)butanamide hydrochloride] | 0.25 µg/mL | 1 µg/mL | 0.25 µg/mL | –
10 | C[C@@](CCN1Cc2cc(C#CC#CC3(N)COC3)cn2C1=O)(C(=O)NO)S(C)(=O)=O [Example 39, (R)-4-(6-((3-aminooxetan-3-yl)buta-1,3-diyn-1-yl)-3-oxo-1H-pyrrolo[1,2-c]imidazol-2(3H)-yl)-N-hydroxy-2-methyl-2-(methylsulfonyl)butanamide hydrochloride] | – | – | – | MIC ([1]; A651, read-out: MIC for K. Pneumoniae A-651): 4 µg/mL; MIC ([2]; ATCC27853, read-out: MIC for P. aeruginosa ATCC27853): 4 µg/mL; MIC ([3]; ATCC25922, read-out: MIC for E. coli ATCC25922): 2 µg/mL
11 | C[C@@](CCN1Cc2cc(-c3ccc(OCCO)cc3F)cn2C1=O)(C(=O)NO)S(C)(=O)=O [Example 41, (R)-4-(6-(2-fluoro-4-(2-hydroxyethoxy)phenyl)-3-oxo-1H-pyrrolo[1,2-c]imidazol-2(3H)-yl)-N-hydroxy-2-methyl-2-(methylsulfonyl)butanamide] | 2 µg/mL (≈ 4.26 µM) | 4 µg/mL (≈ 8.52 µM) | 1 µg/mL (≈ 2.13 µM) | –
12 | C[C@@](CCN1Cc2cc(C#CC#CC3[C@@H](CO)[C@H]3CO)cn2C1=O)(C(=O)NO)S(C)(=O)=O (stereo partly drawn) [Example 42, (R)-4-(6-(((2R,3S)-2,3-bis(hydroxymethyl)cyclopropyl)buta-1,3-diyn-1-yl)-3-oxo-1H-pyrrolo[1,2-c]imidazol-2(3H)-yl)-N-hydroxy-2-methyl-2-(methylsulfonyl)butanamide] | 8 µg/mL (≈ 17.3 µM) | 4 µg/mL (≈ 8.63 µM) | 8 µg/mL (≈ 17.3 µM) | –
13 | C[C@@](CCN1Cc2cc(-c3ccc(OC[C@H](O)CO)cc3F)cn2C1=O)(C(=O)NO)S(C)(=O)=O [Example 43, (R)-4-(6-(4-((R)-2,3-dihydroxypropoxy)-2-fluorophenyl)-3-oxo-1H-pyrrolo[1,2-c]imidazol-2(3H)-yl)-N-hydroxy-2-methyl-2-(methylsulfonyl)butanamide] | 16 µg/mL (≈ 32 µM) | 8 µg/mL (≈ 16 µM) | 8 µg/mL (≈ 16 µM) | –

Continued, in another order:

Row | MIC [1, 4] | MIC [2, 5] | MIC [3, 6] | Structure (SMILES) | other results
14 | 0.5 µg/mL (≈ 1.05 µM) | 1 µg/mL (≈ 2.1 µM) | 0.125 µg/mL (≈ 0.263 µM) | C[C@@](CCN1Cc2cc(C#Cc3ccc(OCCO)cc3)cn2C1=O)(C(=O)NO)S(C)(=O)=O [Example 22, (R)-N-hydroxy-4-(6-((4-(2-hydroxyethoxy)phenyl)ethynyl)-3-oxo-1H-pyrrolo[1,2-c]imidazol-2(3H)-yl)-2-methyl-2-(methylsulfonyl)butanamide] | –
15 | 4 µg/mL (≈ 8.22 µM) | 4 µg/mL (≈ 8.22 µM) | 1 µg/mL (≈ 2.06 µM) | C[C@@](CCN1Cc2cc(C#Cc3ccc(C4(CO)CC4)nc3)cn2C1=O)(C(=O)NO)S(C)(=O)=O [Example 23, (R)-N-hydroxy-4-(6-((6-(1-(hydroxymethyl)cyclopropyl)pyridin-3-yl)ethynyl)-3-oxo-1H-pyrrolo[1,2-c]imidazol-2(3H)-yl)-2-methyl-2-(methylsulfonyl)butanamide] | –
16 | 32 µg/mL | 8 µg/mL | 8 µg/mL | C[C@@](CCN1Cc2cc(C#Cc3ccc(C4(CO)CC4)cn3)cn2C1=O)(C(=O)NO)S(C)(=O)=O.O=CO [Example 24, (R)-N-hydroxy-4-(6-((5-(1-(hydroxymethyl)cyclopropyl)pyridin-2-yl)ethynyl)-3-oxo-1H-pyrrolo[1,2-c]imidazol-2(3H)-yl)-2-methyl-2-(methylsulfonyl)butanamide formate] | –
17 | 1 µg/mL (≈ 1.8 µM) | 4 µg/mL (≈ 7.21 µM) | 1 µg/mL (≈ 1.8 µM) | C[C@@](CCN1Cc2cc(C#Cc3ccc(C4(CN5CCOCC5)CC4)cc3)cn2C1=O)(C(=O)NO)S(C)(=O)=O [Example 26, (R)-N-hydroxy-2-methyl-2-(methylsulfonyl)-4-(6-((4-(1-(morpholinomethyl)cyclopropyl)phenyl)ethynyl)-3-oxo-1H-pyrrolo[1,2-c]imidazol-2(3H)-yl)butanamide] | –
18 | 0.25 µg/mL (≈ 0.512 µM) | 0.5 µg/mL (≈ 1.02 µM) | ≤ 0.063 µg/mL | C[C@@](CCN1Cc2cc(C#Cc3ccc(COC(N)=O)cc3)cn2C1=O)(C(=O)NO)S(C)(=O)=O [Example 32, (R)-4-((2-(4-(hydroxyamino)-3-methyl-3-(methylsulfonyl)-4-oxobutyl)-3-oxo-2,3-dihydro-1H-pyrrolo[1,2-c]imidazol-6-yl)ethynyl)benzyl carbamate] | –
19 | 1 µg/mL (≈ 1.89 µM) | 16 µg/mL (≈ 30.3 µM) | 0.125 µg/mL (≈ 0.236 µM) | C[C@@](CCN1Cc2cc(C#Cc3ccc(C4(COC(N)=O)CC4)cc3)cn2C1=O)(C(=O)NO)S(C)(=O)=O [Example 34, (R)-(1-(4-((2-(4-(hydroxyamino)-3-methyl-3-(methylsulfonyl)-4-oxobutyl)-3-oxo-2,3-dihydro-1H-pyrrolo[1,2-c]imidazol-6-yl)ethynyl)phenyl)cyclopropyl)methyl carbamate] | –
20 | 0.5 µg/mL (≈ 1.05 µM) | 2 µg/mL (≈ 4.2 µM) | 0.25 µg/mL (≈ 0.525 µM) | C[C@@](CCN1Cc2cc(C#CC#CC3(COC(N)=O)CC3)cn2C1=O)(C(=O)NO)S(C)(=O)=O [Example 35, (R)-(1-((2-(4-(hydroxyamino)-3-methyl-3-(methylsulfonyl)-4-oxobutyl)-3-oxo-2,3-dihydro-1H-pyrrolo[1,2-c]imidazol-6-yl)buta-1,3-diyn-1-yl)cyclopropyl)methyl carbamate] | –
21 | 0.25 µg/mL (≈ 0.5 µM) | 1 µg/mL (≈ 2 µM) | ≤ 0.063 µg/mL | C[C@@](CCN1Cc2cc(C#Cc3ccc(C4(CO)CCC4)cc3)cn2C1=O)(C(=O)NO)S(C)(=O)=O [Example 40, (R)-N-hydroxy-4-(6-((4-(1-(hydroxymethyl)cyclobutyl)phenyl)ethynyl)-3-oxo-1H-pyrrolo[1,2-c]imidazol-2(3H)-yl)-2-methyl-2-(methylsulfonyl)butanamide] | –
22 | 0.25 µg/mL (≈ 0.505 µM) | 1 µg/mL (≈ 2.02 µM) | ≤ 0.063 µg/mL | C[C@@](CCN1Cc2cc(C#Cc3ccc(C(F)(F)CO)cc3)cn2C1=O)(C(=O)NO)S(C)(=O)=O [Example 44, (R)-4-(6-((4-(1,1-difluoro-2-hydroxyethyl)phenyl)ethynyl)-3-oxo-1H-pyrrolo[1,2-c]imidazol-2(3H)-yl)-N-hydroxy-2-methyl-2-(methylsulfonyl)butanamide] | –
